# Results as given in the supplement of paper PMC10331698.
# ± gives the standard deviation of the averaged measurements.
# Tests used:
# Assay in all cases: level (log10 ratio to DMSO vehicle control); higher = higher biomarker level / cell amount than vehicle control
# [1] = compound: O=C(CC(=O)C(F)(F)C(F)(F)C(F)(F)F)c1cccs1 [(Perfluorobutyryl)-2-thenoylmethane]; details: in DMSO
# Description: (§1)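 BioMAP Diversity Plus panel of 12 human primary cell co-culture systems (3C, 4H, LPS, SAg, BT, BF4T, BE3C, CASM3C, HDF3CGF, KF3CT, MyoF, Mphg). Compounds were added 1 h before stimulation and left for 24 h (MyoF 48 h; BT 72 h for soluble read-outs or 6 d for IgG). Biomarkers were read by ELISA, cytotoxicity by SRB, PBMC viability and proliferation by Alamar Blue. Each well value was divided by the mean of 8 DMSO control wells on the same plate and log10 transformed; duplicate blinded samples were tested at 4 concentrations.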
# [2] = compound: O=S(=O)(O)CCC(F)(F)C(F)(F)C(F)(F)C(F)(F)F [4:2 Fluorotelomer sulfonic acid]; details: in DMSO
# Description: as §1
# Perfluorooctanoic acid = compound: O=C(O)C(F)(F)C(F)(F)C(F)(F)C(F)(F)C(F)(F)C(F)(F)C(F)(F)F [Perfluorooctanoic acid]; details: in DMSO
# Description: as §1
# [3] = compound: OCCCCC(F)(F)C(F)(F)C(F)(F)C(F)(F)F [4:4 Fluorotelomer alcohol]; details: in DMSO
# Description: as §1
# [4] = compound: C=CC(=O)OCC(F)(F)C(F)(F)C(F)(F)C(F)(F)COC(=O)C=C [1H,1H,6H,6H-Perfluorohexane-1,6-diol diacrylate]; details: 6700 nM; in DMSO
# Description: as §1
# Methotrexate = compound: CN(Cc1cnc2nc(N)nc(N)c2n1)c1ccc(C(=O)N[C@@H](CCC(=O)O)C(=O)O)cc1 [Methotrexate]; details: in DMSO
# Description: as §1
# Tetrafluorosuccinic acid = compound: O=C(O)C(F)(F)C(F)(F)C(=O)O [Tetrafluorosuccinic acid]; details: in DMSO
# Description: as §1
# [5] = compound: OCCC(F)(F)C(F)(F)C(F)(F)C(F)(F)C(F)(F)C(F)(F)C(F)(F)C(F)(F)F [8:2 Fluorotelomer alcohol]; details: 6700 nM; in DMSO
# Description: as §1
Test System,level (log10) ([1]; 6700 nM),level (log10) ([1]; 20000 nM),level (log10) ([2]; 6700 nM),level (log10) ([2]; 20000 nM),level (log10) ([2]; 60000 nM),level (log10) (Perfluorooctanoic acid; 6700 nM),level (log10) (Perfluorooctanoic acid; 20000 nM),level (log10) (Perfluorooctanoic acid; 60000 nM),level (log10) ([3]; 6700 nM),level (log10) ([3]; 20000 nM),level (log10) ([3]; 60000 nM),level (log10) [4],level (log10) (Methotrexate; 1500 nM),level (log10) (Methotrexate; 4400 nM),level (log10) (Methotrexate; 13000 nM),level (log10) (Methotrexate; 40000 nM),level (log10) (Tetrafluorosuccinic acid; 6700 nM),level (log10) (Tetrafluorosuccinic acid; 20000 nM),level (log10) (Tetrafluorosuccinic acid; 60000 nM),level (log10) [5]
CASM3C:SRB,0.0105 ± 0.0064,-0.0125 ± 0.0078,-0.0045 ± 0.0064,-0.013 ± 0.0028,-0.001 ± 0.0028,-0.005 ± 0.0042,0.0005 ± 0.00071,0.0095 ± 0.00071,-0.0045 ± 0.00071,0.0015 ± 0.012,-0.0025 ± 0.016,0 ± 0.0014,0.001,-0.0095 ± 0.0064,-0.0055 ± 0.0035,-0.0105 ± 0.011,-0.012 ± 0.0028,-0.005 ± 0.0014,-0.0105 ± 0.005,-0.014 ± 0.0057
MyoF:CD106/VCAM-1,-0.0225 ± 0.039,-0.0315 ± 0.013,-0.0015 ± 0.013,-0.0115 ± 0.0092,-0.004 ± 0.0014,0.0065 ± 0.011,0.004 ± 0.0028,0.0095 ± 0.00071,-0.004 ± 0.016,-0.01 ± 0.018,-0.0055 ± 0.0078,-0.219 ± 0.035,0.0165 ± 0.015,-0.0045 ± 0.013,0.038 ± 0.024,0.0095 ± 0.0092,-0.0095 ± 0.016,0.0005 ± 0.019,-0.015 ± 0.0085,-0.026 ± 0.016
lMphg:SRB-Mphg,0.005 ± 0.011,-0.054 ± 0.0028,-0.004,0.01,0.0065 ± 0.016,-0.0085 ± 0.013,0.0005 ± 0.005,-0.002 ± 0.03,0.008 ± 0.016,-0.009 ± 0.0057,-0.01 ± 0.0085,-0.0115 ± 0.084,-0.105 ± 0.073,-0.0855 ± 0.0021,-0.105 ± 0.064,0.0295 ± 0.025,-0.0035 ± 0.015,-0.0075 ± 0.013,-0.013 ± 0.016,-0.015 ± 0.03
lMphg:CD62E/E-Selectin,-0.0485 ± 0.054,-0.123 ± 0.034,-0.0235 ± 0.033,-0.0105 ± 0.061,-0.0105 ± 0.011,-0.007 ± 0.025,0.013,0.052 ± 0.017,-0.0275 ± 0.018,-0.012 ± 0.018,-0.0195 ± 0.04,-0.044 ± 0.021,-0.009 ± 0.0099,-0.0265 ± 0.028,-0.0135 ± 0.019,-0.011 ± 0.033,-0.0075 ± 0.032,0.0085 ± 0.011,0.032 ± 0.013,0.024 ± 0.023
CASM3C:CD141/Thrombomodulin,0.0115 ± 0.09,-0.008 ± 0.1,-0.01 ± 0.031,-0.021 ± 0.0099,-0.0045 ± 0.029,0.0125 ± 0.0092,0.007 ± 0.016,-0.0115 ± 0.0064,-0.0065 ± 0.012,-0.0065 ± 0.0078,0.0145 ± 0.032,0.0295 ± 0.016,0.0595 ± 0.005,-0.008 ± 0.093,0.0155 ± 0.098,0.044 ± 0.021,-0.0015 ± 0.012,0.013 ± 0.023,-0.0265 ± 0.025,0.0135 ± 0.0021
HDF3CGF:CXCL11/I-TAC,-0.014 ± 0.013,-0.114 ± 0.0092,-0.0475 ± 0.059,-0.037 ± 0.064,-0.089 ± 0.024,-0.0205 ± 0.011,-0.016 ± 0.027,-0.007 ± 0.024,0.0075 ± 0.0078,0.0205 ± 0.0092,-0.001 ± 0.014,-0.574 ± 0.078,-0.0095 ± 0.013,-0.0105 ± 0.033,-0.008 ± 0.023,-0.018 ± 0.05,-0.03 ± 0.035,-0.0215 ± 0.005,-0.0565 ± 0.071,-0.04 ± 0.024
KF3CT:CXCL8/IL-8,-0.037 ± 0.027,-0.027 ± 0.025,-0.0095 ± 0.0078,-0.024 ± 0.018,-0.023 ± 0.025,0.015 ± 0.0057,0.0225 ± 0.0064,-0.011 ± 0.0099,0.0185 ± 0.037,-0.006 ± 0.023,0.0205 ± 0.036,0.0005 ± 0.021,0.002 ± 0.017,0 ± 0.021,-0.0085 ± 0.023,0.014 ± 0.011,-0.029 ± 0.011,-0.031 ± 0.0042,-0.0175 ± 0.026,0.0035 ± 0.0035
3C:CD141/Thrombomodulin,-0.113 ± 0.081,-0.071 ± 0.05,-0.014 ± 0.0028,-0.005 ± 0.013,-0.013 ± 0.044,0.023 ± 0.065,-0.011 ± 0.081,-0.0115 ± 0.039,-0.0225 ± 0.035,-0.0265 ± 0.067,-0.007 ± 0.076,-0.079 ± 0.021,-0.024 ± 0.0085,-0.016 ± 0.0057,-0.0235 ± 0.067,-0.0265 ± 0.019,-0.0285 ± 0.039,-0.048 ± 0.024,-0.038 ± 0.0085,0.044 ± 0.0057
HDF3CGF:CXCL9/MIG,-0.0495 ± 0.012,-0.0855 ± 0.0064,-0.01 ± 0.02,-0.0025 ± 0.029,-0.023 ± 0.025,0.001 ± 0.0057,-0.0245 ± 0.036,-0.0095 ± 0.028,-0.0045 ± 0.0092,0.0035 ± 0.0092,0.006 ± 0.02,-1.14 ± 0.041,0.002 ± 0.045,-0.003 ± 0.023,-0.0205 ± 0.036,-0.0165 ± 0.057,-0.0285 ± 0.029,-0.039 ± 0.065,-0.06 ± 0.086,0.004 ± 0.0028
HDF3CGF:TIMP-1,0.069 ± 0.025,0.0215 ± 0.011,-0.0045 ± 0.047,-0.0015 ± 0.00071,0.0035 ± 0.084,-0.015 ± 0.034,-0.029 ± 0.0099,0.0155 ± 0.00071,-0.006 ± 0.017,-0.001 ± 0.034,0.02 ± 0.057,-0.203 ± 0.0021,-0.08 ± 0.073,-0.047 ± 0.082,-0.0525 ± 0.14,-0.0755 ± 0.1,-0.05 ± 0.023,-0.017 ± 0.0042,-0.0155 ± 0.035,-0.013 ± 0.0042
lMphg:M-CSF,-0.0285 ± 0.0021,-0.072 ± 0.0085,-0.0105 ± 0.0078,-0.024 ± 0.0099,-0.0175 ± 0.0035,-0.007 ± 0.0042,0.0105 ± 0.019,0.0185 ± 0.029,-0.0185 ± 0.019,-0.0095 ± 0.0035,0.0105 ± 0.042,-0.0105 ± 0.015,-0.03 ± 0.034,-0.013 ± 0.025,-0.0295 ± 0.026,-0.013 ± 0.085,-0.005 ± 0.018,-0.0105 ± 0.0092,0.019 ± 0.03,-0.0345 ± 0.021
KF3CT:CXCL9/MIG,0.0085 ± 0.0064,0.009 ± 0.0057,0.0005 ± 0.0021,0.004 ± 0.016,0.0105 ± 0.016,0.006 ± 0.016,0.006 ± 0.016,0.01 ± 0.016,0.007 ± 0.023,0.0105 ± 0.011,0.0125 ± 0.022,-0.034 ± 0.0071,0.001 ± 0.0028,0.002 ± 0.016,-0.0005 ± 0.0021,0.001 ± 0.0014,-0.011 ± 0.014,-0.011 ± 0.0099,-0.017 ± 0.0014,0.0045 ± 0.0078
KF3CT:PAI-I,-0.035 ± 0.0071,-0.058 ± 0.013,-0.005 ± 0.0071,-0.015 ± 0.0014,-0.0175 ± 0.0064,0.0005 ± 0.021,-0.015 ± 0.02,-0.079 ± 0.0028,-0.012 ± 0.017,-0.0075 ± 0.013,-0.009 ± 0.013,0.048 ± 0.0071,0.006 ± 0.014,-0.036 ± 0.031,-0.0145 ± 0.025,-0.007 ± 0.1,-0.0465 ± 0.037,-0.0005 ± 0.0021,0 ± 0.0014,-0.0255 ± 0.018
KF3CT:uPA,0.021 ± 0.0014,0.0195 ± 0.005,0 ± 0.0042,0 ± 0.0028,-0.0075 ± 0.028,0.0095 ± 0.0021,0.012 ± 0.0042,0.013 ± 0.017,0.01 ± 0.016,-0.0005 ± 0.00071,0.0005 ± 0.022,-0.057 ± 0.0057,-0.0115 ± 0.0021,-0.0195 ± 0.00071,-0.031 ± 0.057,-0.045 ± 0.059,-0.012 ± 0.0071,0.0025 ± 0.0064,-0.0285 ± 0.00071,0.0155 ± 0.0078
